ChEMBL document CHEMBL2074214, “Penetration of amitriptyline, but not of fluoxetine, into brain is enhanced in mice with blood-brain barrier deficiency due to mdr1a P-glycoprotein gene disruption” (Neuropsychopharmacology, 2000)

Molecular target: ATP-dependent translocase ABCB1 (Mus musculus, UniProt P21447)
Experiment: TP_TRANSPORTER: increase in brain concentration in mdr1a(-/-) mouse
Assay type: functional, organism-based
Details: in vivo

Chain of ATP-dependent translocase ABCB1 (P21447 whole entry): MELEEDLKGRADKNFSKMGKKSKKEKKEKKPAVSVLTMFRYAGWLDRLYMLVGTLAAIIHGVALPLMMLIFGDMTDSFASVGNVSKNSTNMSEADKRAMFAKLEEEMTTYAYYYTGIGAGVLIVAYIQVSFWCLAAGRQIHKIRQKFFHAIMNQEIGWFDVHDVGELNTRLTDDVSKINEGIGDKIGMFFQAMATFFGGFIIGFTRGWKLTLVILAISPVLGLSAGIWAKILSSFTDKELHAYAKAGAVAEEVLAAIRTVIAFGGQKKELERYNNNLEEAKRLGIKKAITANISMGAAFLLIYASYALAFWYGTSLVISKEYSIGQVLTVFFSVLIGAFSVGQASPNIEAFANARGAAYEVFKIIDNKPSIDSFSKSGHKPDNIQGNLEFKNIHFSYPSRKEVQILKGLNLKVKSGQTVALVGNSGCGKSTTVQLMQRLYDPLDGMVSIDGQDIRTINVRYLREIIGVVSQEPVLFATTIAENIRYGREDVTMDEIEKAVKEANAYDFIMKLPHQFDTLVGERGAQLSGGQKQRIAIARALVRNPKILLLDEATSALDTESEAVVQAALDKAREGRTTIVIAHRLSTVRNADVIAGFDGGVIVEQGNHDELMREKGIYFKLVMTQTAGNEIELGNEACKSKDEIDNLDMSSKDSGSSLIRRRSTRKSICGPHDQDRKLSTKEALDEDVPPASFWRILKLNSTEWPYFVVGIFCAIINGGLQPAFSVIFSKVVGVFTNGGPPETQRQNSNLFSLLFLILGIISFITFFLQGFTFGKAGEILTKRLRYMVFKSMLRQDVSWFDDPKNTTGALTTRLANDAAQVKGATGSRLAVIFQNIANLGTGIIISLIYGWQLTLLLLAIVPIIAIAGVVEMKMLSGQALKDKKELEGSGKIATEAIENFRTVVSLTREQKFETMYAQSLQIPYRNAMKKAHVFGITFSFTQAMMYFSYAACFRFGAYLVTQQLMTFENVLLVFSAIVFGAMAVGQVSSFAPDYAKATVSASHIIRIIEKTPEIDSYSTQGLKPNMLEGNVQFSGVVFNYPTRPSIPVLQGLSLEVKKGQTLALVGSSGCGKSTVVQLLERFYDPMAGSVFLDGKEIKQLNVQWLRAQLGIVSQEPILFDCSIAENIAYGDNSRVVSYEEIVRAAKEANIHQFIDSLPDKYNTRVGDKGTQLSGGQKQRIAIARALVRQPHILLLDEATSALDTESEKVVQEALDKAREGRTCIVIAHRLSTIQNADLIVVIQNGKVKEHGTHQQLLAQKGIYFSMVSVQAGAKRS

SMILES	Activity
CN(C)CCC=C1c2ccccc2CCc2ccccc21 [AMITRIPTYLINE]	substrate [+]
CNCCC=C1c2ccccc2CCc2ccccc21 [NORTRIPTYLINE]	substrate [+]
